Reference: US8765459B2, “Apparatus and methods for manipulation and optimization of biological systems” (The Regents of the University of California, priority 2004, dated 2014)

Experiments:
NF-κB [1] = test: Gur Game closed-loop optimization of cytokine combination, NF-κB GFP reporter in microfluidic channels; type: cell-based; settings: 293T cells with κB4-GFP reporter; 1 h stimulation, GFP read 7 h after; determined by final probability distributions of Gur Game search
Experimental: To implement the Gur Game algorithm, each cytokine was represented by an automaton with 10 discrete states (0, 0.25, 0.5, 1, 2.5, 5, 10, 25, 50, and 100 ng/ml) as shown in FIG. 6. At each iteration, a combination of cytokines at their respective states was applied to stimulate the cells for one hour. […] The GFP expression kinetics is thought to be controlled by protein folding and degradation rates, while the amount of transcription (GFP intensity) is thought to provide an indication of the NF-κB activity. The peak intensities were normalized as the reward function for Gur Game. The reward function maps the system state from 0 to 1, with high GFP intensity corresponds to values nearer 1. For each automaton, a random number from 0 to 1 is chosen and compared with the reward value. The next states of the automata were determined according to a prescribed manner (see FIG. 1). The process was repeated for each cytokine during each iteration.
(§1) Microfluidic systems have been proven to be effective for manipulating different biological objects, such as cells and molecules. In this example, the optimization experiments were conducted inside microfluidic channels to facilitate real-time monitoring and dynamic stimulation of the cells. (In FIGS. 7a, the concentrations of individual cytokines are indicated as follows: TNFα concentrations are plotted as solid squares; TNFβ concentrations are plotted as solid circles; IL-1α concentrations are plotted as solid triangles; IL-1β concentrations are plotted as inverted triangles; EFG concentrations are plotted as open squares; and BAFF concentrations are plotted as open circles.) The initial concentrations of the cytokines were 2.5 ng/ml. In order to monitor the activity of the NF-κB, a plasmid with a green fluorescent protein (GFP) reporter gene was placed in the 293T cell. The GFP expression is controlled by a promoter which consisted of a kappa enhancer element (κB4). Similar configurations have been applied in other studies where the GFP fluorescence intensity was able to reflect the cellular NF-κB activity. In addition, computational analysis was performed to correlate the relationship between the expression level of GPF and the activity of NF-κB. Numerical simulation indicated the best duration and time for cytokine stimulation and GFP intensity measurement. The GFP fluorescence intensity of each cell was recorded 7 hours after the stimulation as shown in FIG. 7B (data represent the average intensity of 40-128 cells).
The Gur Game was used to determine the cytokine concentrations in subsequent iterations to probabilistically drive the system toward a high GFP output, i.e. high NF-κB activity. FIG. 6 is a flow chart illustrating an exemplary Gur Game Algorithm, the algorithm used in this example. A detailed description of this exemplary algorithm is set forth above. The peak intensities were normalized as the reward function for this exemplary Gur Game algorithm. The reward function maps the system state from 0 to 1, with high GFP intensity corresponds to values nearer 1. For each automaton, a random number from 0 to 1 is chosen and compared with the reward value.
The next states of the automata were determined according to a prescribed manner, as illustrated in FIG. 7. The process was repeated for each cytokine during each iteration. Each cytokine as represented by an automaton. The numbers represent the concentration of the cytokines, in ng/ml. During each iteration, a random number was generated for each automaton. The numbers were compared to the reward value. If the reward value was larger than the random number, the automaton was rewarded (win). Otherwise, the automaton was penalized (lose). The automaton then decided the state in the next iteration according to the automaton design. Generally, the state moves toward center if penalized, and away the center if rewarded.
Referring to FIGS. 8aand 8b, initially, the system rejected several cytokine combinations with seemingly high outputs. […]

NF-κB [2] = test: Sensitivity analysis of individual cytokines in the potent combination, NF-κB GFP reporter, 96-well plates; type: cell-based; settings: 293T cells; for decrease in fluorescence intensity on elimination of the cytokine from the cytokine combination / effect on NF-κB activity when varied within the potent cytokine combination: 96-well plates, other cytokines held constant, 1 h stimulation, fluorescence 7 h after
Experimental: as §1
Experiments were conducted in 96-well plates. The cells were stimulated with the appropriate concentration of cytokines for one hour and washed with fresh media.

| Molecule | concentration in the most potent cytokine combination for activating NF-κB (NF-κB [1]) [ng/mL] | decrease in fluorescence intensity on elimination of the cytokine from the cytokine combination (NF-κB [2]) [%] | effect on NF-κB activity when varied within the potent cytokine combination (NF-κB [2]) | effect on NF-κB activity alone, without the potent cytokine combination (NF-κB [2]) |
| --- | --- | --- | --- | --- |
| TNFα | 25 | ~50 | most sensitive in the combination | – |
| BAFF: cytokine tested in the combination for NF-κB activity | 2.5 | – | minimal effect | minimal effect |
| epidermal growth factor [EGF] | 2.5 | – | decreased the NF-κB activity with increasing dose concentration | did not show a strong effect |
| IL-1β: cytokine used as stimulus of NF-κB activity | 25 | ~30 | not sensitive to their concentrations in the range of 25-50 ng/ml | – |
| TNFβ: cytokine used as stimulus of NF-κB activity (protein, UniProt P01374 35-205, looked up) Lymphotoxin-alpha: LPGVGLTPSAAQTARQHPKMHLAHSTLKPAAHLIGDPSKQNSLLWRANTDRAFLQDGFSLSNNSLLVPTSGIYFVYSQVVFSGKAYSPKATSSPLYLAHEVQLFSSQYPFHVPLLSSQKMVYPGLQEPWLHSMYHGAAFQLTQGDQLSTHTDGIPHLVLSPSTVFFGAFAL | 50 | ~30 | – | – |
| IL-1α: cytokine used as stimulus of NF-κB activity (protein, UniProt P01583 113-271, looked up) Interleukin-1 alpha: SAPFSFLSNVKYNFMRIIKYEFILNDALNQSIIRANDQYLTAAALHNLDEAVKFDMGAYKSSKDDAKITVILRISKTQLYVTAQDEDQPVLLKEMPEIPKTITGSETNLLFFWETHGTKNYFTSVAHPNLFIATKQDYWVCLAGGPPSITDFQILENQA | 50 | ~30 | not sensitive to their concentrations in the range of 25-50 ng/ml | – |
